In the NIST ThermoML archive (doi:10.1016/j.tca.2007.11.004):
Where “and” joins values, the source holds several entries; their conditions need not be identical. Identical values can stand only once.

Details: Crystal, Transpiration method

O=[Te]=O [tellurium dioxide]
Details | vapor or sublimation pressure
884 K | 0.0001487 kPa
889 K | 0.0001692 kPa
895 K | 0.0001987 kPa
899 K | 0.0002538 kPa
905 K | 0.0003102 kPa
909 K | 0.0003271 kPa
915 K | 0.0004741 kPa
925 K | 0.0006099 kPa and 0.0006023 kPa and 0.0005679 kPa
926 K | 0.0005409 kPa
935 K | 0.0009295 kPa
940 K | 0.001155 kPa
941 K | 0.001072 kPa
946 K | 0.001255 kPa
951 K | 0.001465 kPa
960 K | 0.002168 kPa
971 K | 0.003407 kPa
976 K | 0.003717 kPa
982 K | 0.004543 kPa
987 K | 0.004956 kPa
